In patent US20190203240A1, “METHODS FOR THE PRODUCTION OF RHAMNOSYLATED FLAVONOIDS” (Universitaet Hamburg, priority 2016, published 2019):
Where “and” joins values, the source holds several entries; their conditions need not be identical. Equal values may be shown once.

Tests used:
Format in all cases: cell-based, human
[1] = system: hydrogen peroxide (DHR) in NHEK cells; assay: Protection against UV-induced H2O2 stress in NHEK (DHR probe, flow cytometry); details: 180 mJ/cm^2 UVB (2839 mJ/cm^2 UVA), 100 μM
Description: Pre-incubated NHEK were incubated with the test compound for 24 h. Then the specific fluorescence probe for the measurement of hydrogen peroxide (DHR) or lipid peroxides (C11-fluor) was added and incubated for 45 min. Irradiation occurred with in H2O2 determination UVB at 180 mJ/cm^2 (+UVA at 2839 mJ/cm^2) or UVB at 240 mJ/cm^2 (+UVA at 3538 mJ/cm^2) in lipid peroxide, respectively, using a SOL500 Sun Simulator lamp. After irradiation the cells were post-incubated for 30 min before flow-cytometry analysis.

PGE2 = assay: Anti-inflammatory potential: secreted PGE2 in stimulated NHEK (ELISA); details: PMA - 1 μg/ml, reference at 10^−6M, cytokine type not given
Description: NHEK were pre-incubated for 24 h with the test compounds. The medium was replaced with the NHEK culture medium containing the inflammatory inducers (PMA or Poly I:C) and incubated for another 24 hours. Positive and negative controls ran in parallel. At the endpoint the culture supernatants were quantified of secreted IL-8, PGE2 and TNF-α, by means of ELISA.

[2] = system: matrix metallopeptidase 1 (MMP-1); assay: MMP-1 release in UVA-irradiated NHDF (ELISA); details: NHDF irradiated 15 J/cm^2 UVA, 10^−7M
Description: (§1) Tests were performed with normal human dermal fibroblast cultures at the 8th passage. Cells were grown in DMEM supplemented with glutamine at 2 mM, penicillin at 50 U/mL and streptomycin (50 μg/mL) and 10% of fetal calf serum (FCS) at 37° C. in a 5% CO2 atmosphere.
Human fibroblasts were cultured for 24 hours before the cells were pre-incubated with the test or reference compounds (dexamethasone) for another 24 hours. The medium was replaced by the irradiation medium (EBSS, CaCl2) 0.264 g/L, MgClSO4 0.2 g/L) containing the test compounds) and cells were irradiated with UVA (15 J/cm^2). The irradiation medium was replaced by culture medium including again the test compounds incubated for 48 hours. After incubation the quantity of matrix metallopeptidase 1 (MMP-1) in the culture supernatant was measured using an ELISA kit.

VEGF = assay: Stimulation of VEGF release in NHDF (ELISA); details: 72 hours, 1 μg/ml
Description: as §1
(§2) Fibroblasts were cultured for 24 hours before the cells were incubated with the test compounds for further 72 hours. After the incubation the culture supernatants were collected in order to measure the released quantities of procollagen I, VEGF, and fibronectin by means of ELISA. Reference test compounds were vitamin C (procollagen I), PMA (VEGF), and TGF-β (fibronectin).

procollagen I = assay: Stimulation of procollagen I synthesis in NHDF (ELISA); details: 72 hours, 20 μg/ml
Description: as §1, §2

In the case of `COc1ccc(O)c(C(C)(C)C)c1` [BHA], the “H2O2 % irradiated control” value [1] is reported as 42%, the “H2O2 (AU) Mean” value [1] is reported as 776 AU and the “H2O2 Protection %” value [1] is reported as 70%. The “H2O2 (AU) (DHR GMFI)” value ([1]; single values) was 740 AU and 834 AU and 754 AU.
`C[C@@H]1C[C@H]2[C@@H]3CCC4=CC(=O)C=C[C@]4(C)[C@@]3(F)[C@@H](O)C[C@]2(C)[C@@]1(O)C(=O)CO` [Dexamethasone, reference compound] was tested, and the “% stim. control” value (PGE2) was 92%, the “Cytokine [pg/mL] Mean” value (PGE2) was 1437 pg/mL and the “Cytokine” value (PGE2; single values) was 1318 pg/mL and 1556 pg/mL. The “MMP-1 % Irradiated control” value [2] was 4%, the “MMP-1 % Protection” value [2] was 150% and the “MMP-1 (ng/ml), single replicates” value [2] was 2.5 ng/mL and 3.1 ng/mL and 3.2 ng/mL. The “Mean MMP-1” value [2] was 2.9 ng/mL.
In the case of `CCCCCCCCCCCCCC(=O)O[C@@H]1[C@@H](C)[C@@]2(O)[C@@H](C=C(CO)C[C@]3(O)C(=O)C(C)=C[C@@H]23)[C@@H]2C(C)(C)[C@]12OC(C)=O` [PMA], the “Mean VEGF” value (VEGF) is reported as 148 pg/mL, the “VEGF % Control” value (VEGF) is reported as 205% and the “VEGF % Stimulation” value (VEGF) is reported as 105%. For the same compound, the “VEGF” value (VEGF; single values) was 150 pg/mL and 143 pg/mL.
With `O=C1O[C@H]([C@@H](O)CO)C(O)=C1O` [Vitamin C] the “Procollagen I % Control” value (procollagen I) was 316%, the “Procollagen I % Stimulation” value (procollagen I) was 216% and the “Procollagen I Mean” value (procollagen I) was 5272 ng/mL. For the same compound, the “Procollagen I” value (procollagen I; single values) was 4739 ng/mL and 5854 ng/mL and 5225 ng/mL.
